According to US8828474B2, “Apparatus and methods for loading a drug eluting medical device” (Medtronic Vascular, Inc., priority 2009, dated 2014):

Test: Solubility of sirolimus in solvents / dispersion media
Type: physicochemical
Protocol: Solution 524 is a homogeneous mixture in which therapeutic substance 112 dissolves within a solvent or a solvent mixture. In one embodiment, solution 524 includes a high-capacity solvent 528 which is an organic solvent that has a high capacity to dissolve therapeutic substance 112. High capacity as utilized herein is defined as an ability to dissolve therapeutic substance 112 at concentrations greater than 500 mg of substance per milliliter of solvent. Examples of high capacity drug dissolving solvents for sirolimus and similar substances include but are not limited to tetrahydrofuran (THF), di-chloromethane (DCM), chloroform, and di-methyl-sulfoxide (DMSO). In addition to the high-capacity solvent, solution 524 may include an excipient 526 in order to assist in drug elution. In one embodiment, excipient 526 may be a surfactant such as but not limited to sorbitan fatty acid esters such as sorbitan monooleate and sorbitan monolaurate, polysorbates such as polysorbate 20, polysorbate 60, and polysorbate 80, cyclodextrins such as 2-hydroxypropyl-beta-cyclodextrin and 2,6-di-O-methyl-beta-cyclodextrin, sodium dodecyl sulfate, octyl glucoside, and low molecular weight poly(ethylene glycol)s. In another embodiment, excipient 526 may be a hydrophilic agent such as but not limited to salts such as sodium chloride and other materials such as urea, citric acid, and ascorbic acid. […]

With `CO[C@H]1C[C@@H]2CC[C@@H](C)[C@@](O)(O2)C(=O)C(=O)N2CCCC[C@H]2C(=O)O[C@H]([C@H](C)C[C@@H]2CC[C@@H](O)[C@H](OC)C2)CC(=O)[C@H](C)/C=C(\C)[C@@H](O)[C@@H](OC)C(=O)[C@H](C)C[C@H](C)/C=C/C=C/C=C/1C` [sirolimus] the solubility in hexane was “insoluble”.
